Consider 30 molecules from EP4703359A1 (Shanghai Simr Biotechnology Co., Ltd., priority 2023, dated 2024).

The target of one experiment is T1, α2-GABAA receptor (Homo sapiens, UniProt P18507+P47869).
T1 construct: expressed in transfected cells
T1 sequence (P47869 29-451): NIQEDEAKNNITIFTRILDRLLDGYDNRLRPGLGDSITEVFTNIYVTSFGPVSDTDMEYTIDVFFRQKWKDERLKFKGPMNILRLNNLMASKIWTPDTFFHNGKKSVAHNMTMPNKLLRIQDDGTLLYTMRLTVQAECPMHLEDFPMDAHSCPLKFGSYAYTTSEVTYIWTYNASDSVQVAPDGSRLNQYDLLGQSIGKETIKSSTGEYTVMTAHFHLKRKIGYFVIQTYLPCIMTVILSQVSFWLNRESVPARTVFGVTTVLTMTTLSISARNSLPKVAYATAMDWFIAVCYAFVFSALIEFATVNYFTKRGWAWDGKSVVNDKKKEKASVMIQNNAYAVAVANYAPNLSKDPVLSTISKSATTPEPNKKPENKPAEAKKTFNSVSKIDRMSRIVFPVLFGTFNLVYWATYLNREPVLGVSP
T1 sequence (P18507 40-467 isoform P18507-1 limits assumed): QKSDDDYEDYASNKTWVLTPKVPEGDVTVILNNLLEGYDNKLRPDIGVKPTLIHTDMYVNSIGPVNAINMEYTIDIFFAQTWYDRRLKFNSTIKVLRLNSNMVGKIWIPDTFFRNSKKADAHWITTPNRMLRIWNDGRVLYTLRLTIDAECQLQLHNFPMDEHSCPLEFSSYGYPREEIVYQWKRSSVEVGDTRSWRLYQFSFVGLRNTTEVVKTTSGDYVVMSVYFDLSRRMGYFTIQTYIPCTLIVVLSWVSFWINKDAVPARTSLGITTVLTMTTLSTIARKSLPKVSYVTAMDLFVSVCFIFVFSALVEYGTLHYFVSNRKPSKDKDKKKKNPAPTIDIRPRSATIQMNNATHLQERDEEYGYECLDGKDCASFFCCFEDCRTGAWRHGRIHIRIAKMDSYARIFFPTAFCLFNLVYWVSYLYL
T1 sequence (P28472 26-473 partner): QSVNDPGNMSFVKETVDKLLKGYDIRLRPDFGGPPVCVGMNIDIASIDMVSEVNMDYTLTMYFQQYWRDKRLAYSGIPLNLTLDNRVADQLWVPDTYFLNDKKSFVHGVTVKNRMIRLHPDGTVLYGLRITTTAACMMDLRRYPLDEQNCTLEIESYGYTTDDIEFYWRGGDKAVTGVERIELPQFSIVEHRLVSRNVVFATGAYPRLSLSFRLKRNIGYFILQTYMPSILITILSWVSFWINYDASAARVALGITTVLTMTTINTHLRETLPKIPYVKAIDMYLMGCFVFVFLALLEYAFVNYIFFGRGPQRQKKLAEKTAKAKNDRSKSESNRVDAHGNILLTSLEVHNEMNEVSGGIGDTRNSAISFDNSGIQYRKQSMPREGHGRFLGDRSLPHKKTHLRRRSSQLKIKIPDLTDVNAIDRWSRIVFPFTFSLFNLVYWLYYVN
The experiment can be described thus: Whole-cell patch-clamp electrophysiology, positive allosteric modulatory activity in α2-GABAAR-HEK293 cells. Type of experiment: cell-based. The conditions noted are these: compound 100 nM; GABA 0.10 to 0.11 µM (approximately EC7-8); normalized to reference compound CVL-865 (= 100%). From the text:
The α subunit, β subunit, and γ subunit are indispensable for forming a fully functional GABAA receptor. In this example, HEK293 cells stably expressing α2-GABAA receptors (α2-GABAAR) were constructed and screened respectively via liposome transfection (Felgner, P.L., et al. Proceedings of the National Academy of Sciences, 1987, 84: 7413-7417). The α2-GABAAR-HEK293 cell model co-expresses the α2 subunit (protein sequence referenced under GenBank accession number: NM_000807.4), β3 subunit (protein sequence referenced under GenBank accession number: NM_000814.5), and γ2 subunit (protein sequence referenced under GenBank accession number: NM_000816.3).
The above cell lines were subcultured. α2-GABAAR-HEK293 cells were amplified for testing the affinity of compounds to the benzodiazepine (BZD) site of GABAA receptors. Some of the α2-GABAAR-HEK293 cells in suspension during subculturing were plated on glass slides pre-treated with Poly-D-Lysine for electrophysiological testing (method reference: Patent CN 107344936 A, paragraph 0586).
The positive modulatory activity of the test drug on the α2-GABAA receptor was assessed using electrophysiological methods. The specific approach is as follows:
With regards to the concentration of the compound, the final concentration of all compounds used in the screening was 100 nM. For cell lines expressing α2-GABAA receptors, the GABA concentration was 0.10 to 0.11 µM (approximately EC7-8). Electrophysiological experiments were conducted using the whole-cell patch-clamp technique, which can be referenced to the method reported in the literature (Nickolls, S. A., et al. *British Journal of Pharmacology*, 2018, 175: 708-725). The composition of the extracellular solution (ECS) for electrophysiology was as follows: 150 mM NaCl, 5 mM KCl, 2.5 mM CaCl2, 1 mM MgCl2, 10 mM HEPES, and 10 mM glucose (pH 7.4). The intracellular solution (ICS) for electrophysiology was formulated as follows: 140 mM CsCl, 11 mM EGTA, 10 mM HEPES, 2 mM CaCl2, 1 mM MgCl2, 4 mM MgATP, and 2 mM TEA (pH 7.3). GABA (γ-aminobutyric acid) powder was dissolved in pure water to prepare a stock solution, which was subsequently diluted in ECS. The compound was initially dissolved in dimethyl sulfoxide to prepare a 4 mM stock solution, followed by stepwise dilution into GABA-ECS at corresponding concentrations. All solutions were freshly prepared prior to electrophysiological testing.
Electrophysiological signals were acquired using an EPC 10 amplifier and PatchMaster software (HEKA) or an Axon 700B amplifier and Clampex software (AXON). The recording electrode was pulled from borosilicate glass, with an electrode resistance of 4 to 6 MΩ. Extracellular administration was performed using the ALA-VC-8PG™ system. A single independently growing cell was selected. After forming a tight seal between the glass electrode and the cell membrane, the membrane was ruptured to establish the whole-cell configuration. The cell membrane potential was clamped at -60 mV and recorded in Gap-free mode. During the test, extracellular fluid was first applied externally for approximately 20 seconds. After the baseline (Iprebaseline) was stabilized, the extracellular solution was switched to GABA-ECS. At this point, the current induced by GABA (Igaba) can be detected. After approximately 10 to 20 seconds, once the current had stabilized, the extracellular solution was switched to a mixture of the compound and GABA-ECS until the current induced by both the compound and GABA (Itreatment) could be detected. Finally, the solution was switched to extracellular fluid, and the recording was terminated after 20 to 40 seconds. Only cells with a stable baseline, an absolute control current magnitude (Igaba - Iprebaseline) greater than 40 pA, and a relatively stable current within 10 to 20 seconds were used for compound testing. […]
Background: In patch-clamp work, channel activity is measured electrically.
`CCCNC(=O)c1nc2c(-c3cc4ncoc4cc3F)cccn2c1N` [Example 98]: the “α2-GABAAR Positive allosteric modulatory activity” value worked out at 64%.

As for `CCCNC(=O)c1nc2c(-c3cc(F)c4ocnc4c3)cccn2c1N` [Example 99], the “α2-GABAAR Positive allosteric modulatory activity” value came out at 31%.

The same experiment, now with this note: compound 100 nM; GABA 0.10 to 0.11 µM (approximately EC7-8); normalized to reference compound CVL-865 (= 100%); read-out: α2-GABAAR Positive allosteric modulatory activity.
As for `CCCNC(=O)c1nc2c(-c3c(F)cccc3COC)cccn2c1N` [Example 65, 3-Amino-8-(2-fluoro-6-(methoxymethyl)phenyl)-N-propylimidazo[1,2-a]pyridine-2-carboxamide], the Emax at 0.1 µM amounted to 36%.

For the molecule `CCCNC(=O)c1nc2c(-c3c(C#N)cccc3OC)cccn2c1N` [Example 73, 3-Amino-8-(2-cyano-6-methoxyphenyl)-N-propylimidazo[1,2-a]pyridine-2-carboxamide], the Emax at 0.1 µM amounted to 64%.

In the case of `CCCNC(=O)c1nc2c(-c3c(F)cccc3SC)cccn2c1N` [Example 74, 3-Amino-8-(2-fluoro-6-(methylthio)phenyl)-N-propylimidazo[1,2-a]pyridine-2-carboxamide], the Emax at 0.1 µM is 73%.

Consider `CCCNC(=O)c1nc2c(-c3c(F)cccc3OC(F)(F)F)cccn2c1N` [Example 75, 3-Amino-8-(2-fluoro-6-(trifluoromethoxy)phenyl)-N-propylimidazo[1,2-a]pyridine-2-carboxamide], for which the Emax at 0.1 µM worked out at 101%.

In the case of `CCCNC(=O)c1nc2c(-c3c(F)ccc(Cl)c3OC)cccn2c1N` [Example 80, 3-Amino-8-(2-fluoro-6-methoxyphenyl-5-chloro)-N-propylimidazo[1,2-a]pyridine-2-carboxamide], the Emax at 0.1 µM was determined as 77%.

In the case of `CCCNC(=O)c1nc2c(-c3cnc(OC)nc3OC)cccn2c1N` [Example 81, 3-Amino-8-(2,4-dimethoxypyrimidin-5-yl)-N-propylimidazo[1,2-a]pyridine-2-carboxamide], the Emax at 0.1 µM amounted to 48%.

Turning to `CCCNC(=O)c1nc2c(-c3ccnc(C)c3)cccn2c1N` [Example 86, 3-Amino-8-(2-methylpyridin-4-yl)-N-propylimidazo[1,2-a]pyridine-2-carboxamide], the Emax at 0.1 µM worked out at 73%.

For the molecule `CCCNC(=O)c1nc2c(-c3cncc(C)c3)cccn2c1N` [Example 87, 3-Amino-8-(5-methylpyridin-3-yl)-N-propylimidazo[1,2-a]pyridine-2-carboxamide], the Emax at 0.1 µM amounted to 48%.

On to `CCCNC(=O)c1nc2c(-c3cncc(C#N)c3)cccn2c1N` [Example 88, 3-Amino-8-(5-cyanopyridin-3-yl)-N-propylimidazo[1,2-a]pyridine-2-carboxamide], for which the Emax at 0.1 µM was 63%.

Take `CCCNC(=O)c1nc2c(-c3ccnc(C#N)c3)cccn2c1N` [Example 89, 3-Amino-8-(2-cyanopyridin-4-yl)-N-propylimidazo[1,2-a]pyridine-2-carboxamide]: the Emax at 0.1 µM turned out to be 44%.

In the case of `CCCNC(=O)c1nc2c(-c3cccnc3F)cccn2c1N` [Example 90, 3-Amino-8-(2-fluoropyridin-3-yl)-N-propylimidazo[1,2-a]pyridine-2-carboxamide], the Emax at 0.1 µM came to 60%.

In the case of `CCCNC(=O)c1nc2c(-c3cc4c(cc3OC)N(C)CCO4)cccn2c1N` [Example 92, 3-Amino-8-(6-methoxy-4-methyl-3,4-dihydro-2H-benzo[b][1,4]oxazin-7-yl)-N-propylimidazo[1,2-a]pyridine-2-carboxamide], the Emax at 0.1 µM turned out to be 33%.

For `CCCNC(=O)c1nc2c(-c3cc4oc(=O)n(C)c4cc3OC)cccn2c1N` [Example 93, 3-Amino-8-(5-methoxy-3-methyl-2-oxo-2,3-dihydrobenzo[d]oxazol-6-yl)-N-propylimidazo[1,2-a]pyridine-2-carboxamide], the Emax at 0.1 µM came to 62%.

For `CCCNC(=O)c1nc2c(-c3cn4ccnc4cc3OC)cccn2c1N` [Example 94, 3'-Amino-7-methoxy-N-propyl-[6,8'-diimidazo[1,2-a]pyridine]-2'-carboxamide], the Emax at 0.1 µM came out at 51%.

Take `CCCNC(=O)c1nc2c(-c3cc4cnn(C)c4cc3OC)cccn2c1N` [Example 95, 3-Amino-8-(6-methoxy-1-methyl-1H-indazol-5-yl)-N-propylimidazo[1,2-a]pyridine-2-carboxamide]: the Emax at 0.1 µM stood at 27%.

Turning to `CCCNC(=O)c1nc2c(-c3cc4cn(C)nc4cc3OC)cccn2c1N` [Example 96, 3-Amino-8-(6-methoxy-2-methyl-2H-indazol-5-yl)-N-propylimidazo[1,2-a]pyridine-2-carboxamide], the Emax at 0.1 µM was found to be 52%.

Consider `CCCNC(=O)c1nc2c(-c3cc4cccnc4cc3OC)cccn2c1N` [Example 97, 3-Amino-8-(7-methoxyquinolin-6-yl)-N-propylimidazo[1,2-a]pyridine-2-carboxamide], for which the Emax at 0.1 µM worked out at 52%.

For the molecule `CCCNC(=O)c1nc2c(-c3c(F)ccc4ncoc34)cccn2c1N` [Example 100, 3-Amino-8-(6-fluorobenzoxazol-7-yl)-N-propylimidazopyridine-2-carboxamide], the Emax at 0.1 µM worked out at 94%.

Turning to `CCCNC(=O)c1nc2c(-c3c(F)ccc4ccoc34)cccn2c1N` [Example 101, 3-Amino-8-(6-fluorobenzofuran-7-yl)-N-propylimidazo[1,2-a]pyridine-2-carboxamide], the Emax at 0.1 µM was 112%.

As to `CC1CN(C(=O)c2nc3c(-c4c(F)ccc5ccoc45)cccn3c2N)C1` [Example 102, (3-Amino-8-(6-fluorobenzofuran-7-yl)imidazo[1,2-a]pyridin-2-yl)(3-methylazetidin-1-yl)methanone], the Emax at 0.1 µM worked out at 44%.

In the case of `CCCNC(=O)c1nc2c(-c3c(OC)ccc4ccoc34)cccn2c1N` [Example 103, 3-Amino-8-(6-methoxybenzofuran-7-yl)-N-propylimidazo[1,2-a]pyridine-2-carboxamide], the Emax at 0.1 µM is 87%.

For the molecule `CCCNC(=O)c1nc2c(-c3c(F)ccc4c3OCC4)cccn2c1N` [Example 106, 3-Amino-8-(6-fluoro-2,3-dihydrobenzofuran-7-yl)-N-propylimidazo[1,2-a]pyridine-2-carboxamide], the Emax at 0.1 µM was 100%.

Consider `CCCNC(=O)c1nc2c(-c3c(OC)ccc4ccc(F)cc34)cccn2c1N` [Example 107, 3-Amino-8-(7-fluoro-2-methoxynaphthalen-1-yl)-N-propylimidazo[1,2-a]pyridine-2-carboxamide], for which the Emax at 0.1 µM came to 90%.

With `CCCNC(=O)c1nc2c(-c3c(F)ccc4ccc(OC)cc34)cccn2c1N` [Example 108, 3-Amino-8-(2-fluoro-7-methoxynaphthalen-1-yl)-N-propylimidazo[1,2-a]pyridine-2-carboxamide], the Emax at 0.1 µM came to 50%.

`CCCNC(=O)c1nc2c(-c3cc(F)ccc3OC)c(F)ccn2c1N` [Example 110, 3-Amino-7-fluoro-8-(5-fluoro-2-methoxyphenyl)-N-propylimidazo[1,2-a]pyridine-2-carboxamide]: the Emax at 0.1 µM was 141%.

As to `CCCNC(=O)c1nc2c(-c3cc(OC)ccc3OC)c(F)ccn2c1N` [Example 111], the Emax at 0.1 µM was 77%.

For `CCCNC(=O)c1nc2c(-c3cccnc3F)c(F)ccn2c1N` [Example 112, 3-Amino-7-fluoro-8-(2-fluoropyridin-3-yl)-N-propylimidazo[1,2-a]pyridine-2-carboxamide], the Emax at 0.1 µM came out at 53%.

`CCCNC(=O)c1nc2c(-c3cc(F)cc(F)c3)c(F)ccn2c1N` [Example 113, 3-Amino-8-(3,5-difluorophenyl)-7-fluoro-N-propylimidazo[1,2-a]pyridine-2-carboxamide]: the Emax at 0.1 µM is 49%.
